Here are results for ten compounds from US9840515B2, “Protein kinase D inhibitors” (University of Pittsburgh—Of the Commonwealth System of …, priority 2010, dated 2017).

Data set [1] addresses T1, purified recombinant human PKD1 (Homo sapiens, UniProt Q15139).
T1 sequence (Q15139 1-912): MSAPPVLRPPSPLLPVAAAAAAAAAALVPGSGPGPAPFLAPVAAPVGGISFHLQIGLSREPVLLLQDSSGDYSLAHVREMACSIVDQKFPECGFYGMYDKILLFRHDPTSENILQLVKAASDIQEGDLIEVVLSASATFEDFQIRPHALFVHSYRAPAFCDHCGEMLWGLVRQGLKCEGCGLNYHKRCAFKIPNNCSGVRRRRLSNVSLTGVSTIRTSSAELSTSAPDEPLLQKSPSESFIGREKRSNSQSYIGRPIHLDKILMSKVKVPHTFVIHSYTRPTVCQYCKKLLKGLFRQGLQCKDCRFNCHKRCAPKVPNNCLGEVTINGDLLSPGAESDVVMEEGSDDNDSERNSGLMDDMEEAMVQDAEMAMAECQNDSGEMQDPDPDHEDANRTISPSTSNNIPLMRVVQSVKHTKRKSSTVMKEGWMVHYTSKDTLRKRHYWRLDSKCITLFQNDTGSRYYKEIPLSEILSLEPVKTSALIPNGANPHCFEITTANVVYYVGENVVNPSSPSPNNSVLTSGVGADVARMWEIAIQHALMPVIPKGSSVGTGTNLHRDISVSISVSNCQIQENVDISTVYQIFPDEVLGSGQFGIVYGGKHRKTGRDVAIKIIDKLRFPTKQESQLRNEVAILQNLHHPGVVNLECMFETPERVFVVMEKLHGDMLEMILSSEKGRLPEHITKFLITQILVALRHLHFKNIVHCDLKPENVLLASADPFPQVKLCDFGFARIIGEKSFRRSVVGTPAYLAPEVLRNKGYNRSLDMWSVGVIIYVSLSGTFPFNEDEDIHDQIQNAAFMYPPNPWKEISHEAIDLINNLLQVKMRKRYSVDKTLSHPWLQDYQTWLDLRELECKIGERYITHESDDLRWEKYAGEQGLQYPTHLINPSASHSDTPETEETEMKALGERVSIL
Nature of the data set: radiometric PKD kinase activity assay. The format is biochemical. On the procedure:
The radiometric PKD kinase assay was carried out by co-incubating 0.5 μCi γ-32P-ATP (PerkinElmer, Boston, Mass.), 20 μM ATP, 50 ng purified recombinant human PKD (PKD1, PKD2, PKD3) proteins, and 2.5 μg Syntide-2 (Sigma) in 50 μl kinase buffer that contains 50 mM Tris-HCl, pH 7.5, 4 mM MgCl2, 10 mM β-mercaptoethanol. The reaction was carried out under sub-saturation conditions, such that the initial rate was within linear kinetic range. The reaction mixture was incubated at 30° C. for 10 min, followed by spotting 25 μl of the mix onto a Whatman P81 filter paper (Whatman Inc, Clifton, N.J.). The filter papers were then washed three times in 0.5% phosphoric acid, air-dried, and counted using a Beckman LS6500 multi-purpose scintillation counter (Beckman, Fullerton, Calif.).

Another data set relates to AKT. The data set can be described thus: IMAP-based AKT fluorescent polarization counter-screen. The class given is biochemical. Particulars: read-out: IC50 AKT (Ave ± SD). On the procedure: (§1) Automated, highthroughput screening (HTS) formatted IMAP-based AKT fluorescent polarization assay (AKT FP), and PLK1 and CAK TR-FRET assays were used to assess the specificity of the PKD analogs as previously described. See Sharlow, E. R., et. al., J. Biol Chem, 283: 33516-33526, (2008). For the PLK2 IMAP TR-FRET assay, PLK2 kinase reactions were generated by the stepwise addition of a 3-fold excess concentration of substrate/ATP (1650 nM/105 μM), analog, and PLK2 enzyme (1.02 milliunits/μL). PLK2 kinase reactions were incubated for 150 min at room temperature and stopped with the addition of an IMAP binding reagent supplemented with terbium. Assay plates were then incubated overnight. Analysis was performed as described in the literature. Id.
(§2) The PLK2 substrate (FAM-[…]) was obtained from Molecular Devices (Sunnyvale, Calif.). H-89 was used as a positive inhibitory control compound in the assays. A 10 point concentration range for each compound to be tested was used to determine IC50 values. The maximum concentration of a particular compound used in this assay was either 50 μM, or 100 μM, depending on the solubility of the individual compounds. Each experiment was assayed in triplicate and data is represented as average IC50±SD. The IC50 determinations for each analog evaluated in the IMAP (PLK2, PLK1, CAK, and AKT) formats were conducted within the linear range of the captured signal readout.

A further data set concerns the target PLK1 (Homo sapiens, UniProt P53350). Nature of the data set: IMAP PLK1 TR-FRET counter-screen. The class given is biochemical. Particulars: read-out: IC50 PLK1 (Ave ± SD). The procedure: as §1, §2
The next data set deals with PLK2 (Homo sapiens, UniProt Q9NYY3). The data set can be described thus: PLK2 IMAP TR-FRET counter-screen. The class given is biochemical. Particulars: read-out: IC50 PLK2 (Ave ± SD). On the procedure: as §1, §2
For orientation: In TR-FRET formats the signal depends on donor and acceptor labels being close together.

A further data set concerns the target CAK (CDK7) (Homo sapiens, UniProt P50613). Nature of the data set: IMAP CAK TR-FRET counter-screen. The format is biochemical. Particulars: read-out: IC50 CAK(CDK7) (Ave ± SD). On the procedure:
as §1, §2

Data set [2] addresses T2, PKD1 (Homo sapiens, UniProt Q15139).
T2 sequence (Q15139 1-912): T1 sequence (Q15139 1-912)
Nature of the data set: Cellular inhibition of PMA-induced PKD1 S916 autophosphorylation in LNCaP cells (Western blot densitometry). The format is cell-based. Set-up: endogenous in cells; host or cells: LNCaP prostate cancer cells. Particulars: for IC50: PKD1 autophosphorylation at S916 in LNCaP cells. The procedure:
The compound to be tested was dissolved in DMSO at an initial concentration of 10 mM. LNCaP prostate cancer cells were pre-treated with DMSO or increasing concentrations of the compound for 45 min, followed by treatment with or without 100 nM phorbol 12-myristate 13-acetate (PMA), an activator of PKD, for 20 min. The cells were harvested for Western blot analysis.
Briefly, cells were lysed in lysis buffer containing 200 mM Tris-HCl, pH 7.4, 100 μM 4-(2-aminoethyl)benzenesulfonyl fluoride, 1 mM EGTA, and 1% Triton X-100. Protein concentration was determined using the BCA Protein Concentration Assay reagent kit (Pierce). Equal amounts of protein were subjected to SDS-PAGE followed by electrotransfer to nitrocellulose membranes. Membranes were blocked with 5% nonfat milk in Tris-buffered saline and then probed with primary antibodies for p-S916-PKD1 (Millipore), p-S744/748-PKD1 (Cell Signaling Technology), or GAPDH (Enzo), followed by anti-mouse or anti-rabbit secondary antibodies conjugated to horseradish peroxidase (Bio-Rad). The bands were detected by incubating with the enhanced chemiluminescence (ECL) Western blotting detection reagent (Amersham Biosciences) and exposing to X-ray films.
For orientation: Immunoblotting shows a protein as a band on a membrane.

The target in data set [3] is T2, PKD1. Nature of the data set: IMAP-FP PKD1 assay. The format is biochemical. An excerpt: See Sharlow, E. R., et. al., J Biol Chem, 283: 33516-33526, (2008). The assay established the concentration of inhibitor that is required to reduce PKD1 activity by 50% (IC50), as shown in Table 2 above.
A short description of data set [4]: stability in protic solvents. The format is physicochemical.
Where [5] appears, read: radiometric kinase activity assay, in vitro, read-out: IC50 PKD1.
Setting [6] is: read-out: IC50 radiometric PKD1.

Several values for one entry are separate records, joined by “and”; a condition that tells them apart may be missing. Equal values may be shown once. Entries after “also recorded” stand apart in the source; their conditions may differ. Read-outs that look alike come from different tables or passages of the source.

PLK1, sequence (P53350 whole entry, species assumed): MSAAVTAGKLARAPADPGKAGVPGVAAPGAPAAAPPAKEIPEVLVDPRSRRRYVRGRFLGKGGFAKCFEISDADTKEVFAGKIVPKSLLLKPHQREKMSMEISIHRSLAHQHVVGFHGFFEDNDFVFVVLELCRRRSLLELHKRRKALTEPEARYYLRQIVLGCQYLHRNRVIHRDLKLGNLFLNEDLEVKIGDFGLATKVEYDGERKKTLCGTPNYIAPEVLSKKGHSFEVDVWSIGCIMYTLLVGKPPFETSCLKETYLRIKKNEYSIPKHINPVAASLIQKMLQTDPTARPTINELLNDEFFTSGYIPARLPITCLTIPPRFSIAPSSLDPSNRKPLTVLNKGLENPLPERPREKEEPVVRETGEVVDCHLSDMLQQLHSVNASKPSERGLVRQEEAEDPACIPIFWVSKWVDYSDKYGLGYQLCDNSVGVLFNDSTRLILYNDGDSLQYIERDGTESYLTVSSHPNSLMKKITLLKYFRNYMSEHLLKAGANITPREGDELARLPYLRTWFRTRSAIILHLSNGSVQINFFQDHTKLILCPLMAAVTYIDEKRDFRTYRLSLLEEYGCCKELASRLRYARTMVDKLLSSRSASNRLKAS
PLK2, sequence (Q9NYY3 whole entry, species assumed): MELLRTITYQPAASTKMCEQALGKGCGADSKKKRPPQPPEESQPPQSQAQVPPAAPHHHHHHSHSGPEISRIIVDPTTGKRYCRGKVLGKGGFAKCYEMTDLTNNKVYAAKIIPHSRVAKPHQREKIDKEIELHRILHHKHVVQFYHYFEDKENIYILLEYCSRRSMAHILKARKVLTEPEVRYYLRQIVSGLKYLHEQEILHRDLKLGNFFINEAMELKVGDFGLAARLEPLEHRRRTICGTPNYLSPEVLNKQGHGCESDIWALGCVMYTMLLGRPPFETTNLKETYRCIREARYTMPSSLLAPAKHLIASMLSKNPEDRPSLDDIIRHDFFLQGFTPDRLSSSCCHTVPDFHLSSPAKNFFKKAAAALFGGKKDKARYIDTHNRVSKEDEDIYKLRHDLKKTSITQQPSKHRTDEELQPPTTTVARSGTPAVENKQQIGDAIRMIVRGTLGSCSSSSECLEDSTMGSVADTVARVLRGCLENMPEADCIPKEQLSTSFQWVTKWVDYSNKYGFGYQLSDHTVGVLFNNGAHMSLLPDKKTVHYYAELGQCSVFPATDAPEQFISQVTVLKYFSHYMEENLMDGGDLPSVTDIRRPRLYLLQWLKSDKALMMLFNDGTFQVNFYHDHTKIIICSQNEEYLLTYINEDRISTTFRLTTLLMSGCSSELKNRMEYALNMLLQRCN
CAK (CDK7), sequence (P50613 whole entry, species assumed): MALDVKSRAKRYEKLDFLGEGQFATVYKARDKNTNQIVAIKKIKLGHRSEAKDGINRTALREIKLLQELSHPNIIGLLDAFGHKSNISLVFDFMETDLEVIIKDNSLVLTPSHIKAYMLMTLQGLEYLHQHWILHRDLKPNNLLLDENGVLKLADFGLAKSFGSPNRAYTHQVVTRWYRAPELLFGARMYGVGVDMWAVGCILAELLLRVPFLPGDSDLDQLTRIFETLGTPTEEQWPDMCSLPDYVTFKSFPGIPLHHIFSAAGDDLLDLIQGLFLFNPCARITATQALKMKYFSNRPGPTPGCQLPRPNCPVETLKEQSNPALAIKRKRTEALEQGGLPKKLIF
CAK (CDK7), sequence (P51946 whole entry partner, species assumed): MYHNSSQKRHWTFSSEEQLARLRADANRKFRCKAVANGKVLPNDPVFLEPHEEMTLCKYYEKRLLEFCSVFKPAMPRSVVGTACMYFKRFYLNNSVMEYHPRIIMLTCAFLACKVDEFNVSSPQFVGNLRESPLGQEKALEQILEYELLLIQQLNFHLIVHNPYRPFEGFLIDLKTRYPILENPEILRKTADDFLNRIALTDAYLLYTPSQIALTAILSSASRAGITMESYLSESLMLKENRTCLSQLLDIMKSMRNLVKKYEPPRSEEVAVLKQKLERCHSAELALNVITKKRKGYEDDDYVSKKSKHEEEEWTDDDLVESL
CAK (CDK7), sequence (P51948 whole entry partner, species assumed): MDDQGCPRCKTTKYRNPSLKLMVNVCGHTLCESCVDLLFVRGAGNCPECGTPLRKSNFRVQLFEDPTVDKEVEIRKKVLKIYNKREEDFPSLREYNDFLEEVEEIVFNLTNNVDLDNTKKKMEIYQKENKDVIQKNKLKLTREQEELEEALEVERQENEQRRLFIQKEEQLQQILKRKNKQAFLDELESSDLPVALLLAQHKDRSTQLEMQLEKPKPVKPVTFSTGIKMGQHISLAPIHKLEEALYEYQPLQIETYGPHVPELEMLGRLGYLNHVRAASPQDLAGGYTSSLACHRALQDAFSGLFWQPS

For `COc1ccc2sc3c(c2c1)SCCCNC3=O` [kb-NB184-02, 2,3,4,5-Tetrahydro-10-methoxybenzo[b]thieno[2,3-f]-1,5-thiazocin-6-one], the IC50 – broadly, the concentration needed to halve the response being measured – in data set [1] (setting [5]) is 0.193 ± 0.027 µM; in [1] (setting [6]) it was 0.19 ± 0.03 µM; in the data set on AKT, > 100 µM; at PLK1, > 50 µM; on PLK2, > 50 µM; at CAK (CDK7) it was 9 ± 4.1 µM. This compound also displayed an IC50 on PKD1 [2] of 18.6 ± 2 µM.

Regarding `O=C1NCCCc2c1[nH]c1ccc(O)cc21` [kb-NB123-57, 3,4,5,10-Tetrahydro-7-hydroxy-azepino[3,4-b]indol-1(2H)-one], the IC50 was 2.14 ± 0.12 µM against PKD1 [3]; 0.13 µM in [1] (setting [5]); > 100 µM in the data set with AKT; > 100 µM at PLK1; > 100 µM at PLK2; 39.2 ± 10.2 µM on CAK (CDK7). Moreover, at PKD1 [2], the IC50 was > 50 µM. Besides, the “cellular PKD1 inhibition, in words” value at PKD1 [2] (PMA-induced PKD1 autophosphorylation at S916, LNCaP) is “no significant cellular activity; also recorded: weaker inhibition”.

As to `O=C1NCCSc2c1sc1ccc(O)cc21` [kb-NB142-70, 3,4-Dihydro-9-hydroxy-[1]benzothieno[2,3-f]-1,4-thiazepin-5(2H)-one], in [1], the “fold more potent than CID755673 (in vitro PKD1 IC50)” value is reported as ~7 fold. Besides, the IC50 was 0.0283 ± 0.0023 µM in data set [1] (setting [5]); > 100 µM with AKT; 17 ± 7.7 µM on PLK1; 39 ± 3.4 µM on PLK2; 12 ± 0.6 µM on CAK (CDK7); 2.2 µM against PKD1 [2]. The “cellular IC50 fold lower than CID755673” value on PKD1 [2] was determined as 5 fold.

In the case of `O=C1NCCCc2c1oc1ccc(O)cc21` [CID755673, 7-Hydroxy-2,3,4,5-tetrahydro-[1]benzoxolo[2,3-c]azepin-1-one, reference compound], the values for the IC50 (in data set [1] (setting [5]); at PKD1 [2]) were 0.182 ± 0.027 µM and 11.8 µM, respectively.

Regarding `O=C1NCCSc2c1sc1cnc(O)nc21` [kmg-NB4-69A, 2-Hydroxy-7H,8H,9H-1,4-thiazepino[7′,6′-5,4]thiopheno[3,2-d]pyrimidin-6-one], the “PKD inhibition, in words” value in data set [1] is “only weak inhibitory effect”. The IC50 in [1] (setting [6]) came to 25.3 µM. In addition, in data set [4], the “stability in protic solvents” value is “spontaneously degrade in protic solvents”.

As for `COc1ncc2sc3c(c2n1)SCCNC3=O` [kmg-NB4-23, 2-Methoxy-7H,8H,9H-1,4-thiazepino[7′,6′-5,4]thiopheno[3,2-d]pyrimidin-6-one], the melting point (commonly the temperature, or range, at which the solid turns liquid) was 308 °C (dec.). Besides, the “PKD inhibition, in words” value in data set [1] is recorded as “potent nanomolar inhibitor”. The IC50 in data set [1] (setting [5]) stood at 0.124 µM. Besides, the concentration for half-maximal inhibition (IC50) in data set [1] (setting [6]) is 0.12 ± 0.03 µM. Also, the concentration for half-maximal inhibition (IC50) in the data set on AKT was > 100 µM. The IC50 on PLK1 was > 100 µM. Further, the IC50 at PLK2 was > 100 µM. For the same compound, at CAK (CDK7), the half-maximal inhibitory concentration (IC50) was > 100 µM. At PKD1 [2], this compound returned an IC50 of 6.8 ± 1.3 µM.

With `COc1ccc2sc3c(c2c1)SCCNC3=O` [kb-NB165-09, 3,4-Dihydro-9-methoxy-[1]benzothieno[2,3-f]-1,4-thiazepin-5(2H)-one], the IC50 in [1] (setting [5]) was 0.0825 ± 0.0046 µM; in the data set on AKT it was > 50 µM; at PLK1 it was > 50 µM; on PLK2 it was > 50 µM; on CAK (CDK7), 17.1 ± 13.6 µM; against PKD1 [2], 3.1 ± 0.5 µM.

Take `O=C1NCCSc2c1sc1ccc(O)c(I)c21` [kb-NB165-31, 3,4-Dihydro-9-hydroxy-10-iodo-[1]benzothieno[2,3-f]-1,4-thiazepin-5(2H)-one]: the melting point is 128 °C (dec.). Also, the IC50 in data set [1] (setting [5]) came out at 0.114 µM. Besides, the IC50 in [1] (setting [6]) is 0.11 ± 0.02 µM. Also, at PKD1 [2], the “cellular activity fold lower than kb-NB142-70” value is given as 4 fold and the IC50 was 8.6 ± 2 µM.

Regarding `[N-]=[N+]=Nc1ccc2sc3c(c2c1)SCCNC3=O` [mcf292-08, 3,4-Dihydro-9-azido-[1]benzothieno[2,3-f]-1,4-thiazepin-5(2H)-one], the melting point is 193 °C (dec.). Also, the IC50 in [1] (setting [5]) turned out to be 0.0749 µM. Moreover, the 50% inhibitory concentration (IC50) in data set [1] (setting [6]) came out at 0.08 ± 0.01 µM. Further, the IC50 in the data set on AKT is > 50 µM. Also, the half-inhibitory concentration (IC50) at PLK1 was > 50 µM. Moreover, the IC50 on PLK2 is > 50 µM. The IC50 on CAK (CDK7) was > 50 µM. Also, the IC50 at PKD1 [2] is 2.2 µM and 2.17 µM.

Turning to `O=C1NCCCSc2c1sc1ccc(O)cc21` [kb-NB165-92, 2,3,4,5-Tetrahydro-10-hydroxybenzo[b]thieno[2,3-f]-1,5-thiazocin-6-one], the IC50 in data set [1] (setting [5]) is 0.111 ± 0.006 µM; in the data set on AKT it was > 50 µM; at PLK1 it was 13 ± 7.7 µM; on PLK2, 28 ± 3.1 µM; at CAK (CDK7) it was 11 ± 3.3 µM; against PKD1 [2] it was 2.6 µM and 2.56 µM.
